# Like-named read-outs stand apart in the source and are kept apart here.
# Experiments:
# E. coli = conditions: 200 ppm gNO until substantially eradicated; cited from earlier work
# microorganisms = assay: In vitro exposure to 200 ppm gNO, average over all microorganisms of Table 1; assay type: cell-based; conditions: average of the 15 microorganisms
# Text: In vitro studies of the antimicrobial and antiviral effect of gNO have shown that the viability and vitality of viruses, bacteria and fungi decreases to a point of substantial eradication after the pathogen has been exposed to a certain amount of nitric oxide over a certain period of time. This amount, which can be referred to as the effective amount, can be estimated in terms of the concentration of NO in the gas mixture contacted with the pathogen, times the duration of the exposure. For example, the effective amount can be estimated in units of ppm-time-hour, or ppm-hour. Table 1 presents experimental data gathered for microorganisms exposed to 200 ppm gNO until the microorganisms are substantially eradicated*.
# Klebsiella sp. #1 = conditions: 200 ppm gNO until substantially eradicated; cited from earlier work
# [1] = rats, cited from earlier work
# [2] = system: Pseudomonas aeruginosa pneumonia; conditions: 160 ppm gNO, intermittent 30 minute exposures, rat; cited from earlier work
# Candida albicans = conditions: 200 ppm gNO until substantially eradicated; cited from earlier work
# [3] = cited from earlier work
# [4] = healthy humans, cited from earlier work
# [5] = system: chronic, non-healing wound; conditions: topical 200 ppm gNO, cited from earlier work
# Serracia sp. = conditions: 200 ppm gNO until substantially eradicated; cited from earlier work
# MRSA = conditions: 200 ppm gNO until substantially eradicated; cited from earlier work
# S. aureus (ATCC) = conditions: 200 ppm gNO until substantially eradicated; cited from earlier work
# S. maltophilia = conditions: 200 ppm gNO until substantially eradicated; cited from earlier work
# [6] = system: bovine respiratory disease; conditions: intermittent 30 minute exposures of gNO, cattle; cited from earlier work
# S. aureus (Clinical) = conditions: 200 ppm gNO until substantially eradicated; cited from earlier work
# Enterobacter sp. = conditions: 200 ppm gNO until substantially eradicated; cited from earlier work
# Klebsiella sp.#2 = conditions: 200 ppm gNO until substantially eradicated; cited from earlier work
# P. aeruginosa (ATCC) = conditions: 200 ppm gNO until substantially eradicated; cited from earlier work
# Mycobacterium smegmatis = conditions: 200 ppm gNO until substantially eradicated; cited from earlier work
# [7] = Prospective phase I open label safety study of inhaled 160 ppm gNO in healthy adults; assay type: in vivo, human; conditions: 160 ppm gNO for 30 minutes, five times a day
# [8] = system: five planktonic species of methicillin resistant S. aureous (MRSA); conditions: exposure to 1,600 ppm hours of gNO; cited from earlier work
# Group B Streptococci = conditions: 200 ppm gNO until substantially eradicated; cited from earlier work
# MRSA biofilm = conditions: 200 ppm gNO for eight hours (1,600 ppm hours); cited from earlier work
# Acinetobader sp. = conditions: 200 ppm gNO until substantially eradicated; cited from earlier work
# [9] = rats, gNO concentrations below 200 ppm, 6 hours/day for 28 days; cited from earlier work
# Klebsiella sp. #3 = conditions: 200 ppm gNO until substantially eradicated; cited from earlier work
# [10] = 400 ppm gNO, first day of exposure
# [11] = 500 ppm gNO, first day of exposure
# [12] = five consecutive days, healthy adults
smiles,measurement,setting,value
"[N]=O [gNO, nitric oxide]",Effective amount in ppm-hour,E. coli,1000 ppm-hour
same,"Effective amount in ppm-hour, Average",microorganisms,1013.33 ppm-hour
same,Effective amount in ppm-hour,Klebsiella sp. #1,1200 ppm-hour
same,mortality,"[1]; 300 ppm gNO, groups of 10 rats",Six of the animals treated with 300 ppm gNO died during the first 1-2 days
same,MetHb levels,[1]; [10],72.5 percents
same,mortality,[1]; [10],all of the animals died
same,MetHb levels,[1]; [11],67 percents
same,mortality,[1]; [11],all of the animals died
same,pulmonary bioburden and leukocyte infiltration,[2],effective to reduce the pulmonary bioburden and leukocyte infiltration
same,Effective amount in ppm-hour,Candida albicans,800 ppm-hour
same,half-life in the body,[3]; in vivo,less than 6 seconds
same,radius of action from its site of origin,[3]; in vivo,approximately 200 microns
same,"nitrate excreted in the urine, share of the nitric oxide dose inhaled",[3]; predominant metabolite nitrate,more than 70%
same,levels of MetHb,[4]; inhalation of gNO at 128 ppm for 3 hours,> 5%
same,levels of MetHb,[4]; inhalation of gNO at 512 ppm for 55 minutes,> 5%
same,wound size reduction,[5]; at one week,42%
same,presence of biofilm,[5]; within the first three days of treatment,no longer visibly present
same,Effective amount in ppm-hour,Serracia sp.,1200 ppm-hour
same,Effective amount in ppm-hour,MRSA,1000 ppm-hour
same,Effective amount in ppm-hour,S. aureus (ATCC),800 ppm-hour
same,Effective amount in ppm-hour,S. maltophilia,800 ppm-hour
same,clinical symptoms of bovine respiratory disease,[6],shown to decrease the clinical symptoms
same,Effective amount in ppm-hour,S. aureus (Clinical),800 ppm-hour
same,Effective amount in ppm-hour,Enterobacter sp.,1200 ppm-hour
same,Effective amount in ppm-hour,Klebsiella sp.#2,1000 ppm-hour
same,Effective amount in ppm-hour,P. aeruginosa (ATCC),600 ppm-hour
same,Effective amount in ppm-hour,Mycobacterium smegmatis,2000 ppm-hour
same,Forced expiratory volume in 1 sec (FEV1) percentage and other lung function parameters,[7]; [12],improved
same,adverse events,[7]; [12],neither significant adverse events nor adverse events attributable to gNO inhalation occurred
same,methemoglobin levels,[7]; [12],0.9%
same,tolerability,[7]; [12],all individuals tolerated the gNO treatment courses well
same,"serum nitrites/nitrates, prothrombin, pro-inflammatory cytokine and chemokine levels",[7]; baseline versus day 5,did not differ between baseline and day 5
same,population of MRSA planktonic strains,[8],A reduction in the population of all five MRSA planktonic strains was observed
same,Effective amount in ppm-hour,Group B Streptococci,400 ppm-hour
same,MRSA in biofilm,MRSA biofilm,shown to reduce MRSA
same,Effective amount in ppm-hour,Acinetobader sp.,1200 ppm-hour
same,mortality,[9],No deaths occurred
same,Effective amount in ppm-hour,Klebsiella sp. #3,1200 ppm-hour

# — patent US10039781B2, “Pulse inhalation of nitric oxide for treating respiratory diseases” (Advanced Inhalation Therapies (AIT) Ltd., priority 2015, dated 2018)
